Results from ChEMBL document CHEMBL5131471, “Design, synthesis and mechanism studies of novel dual PARP1/BRD4 inhibitors against pancreatic cancer” (Eur J Med Chem, 2022).
Activity calls are given as the source filed them. The calls are words filed in the database; no cut-off is given here.

Tests used:
[1] = Toxicity in nude mouse xenografted with human SW1990 cells assessed as spleen damage at 45 mg/kg, ip administered for 28 days by H and E staining based fluorescence microscopic analysis; format: organism-based; conditions: in vivo, 672 h, time 28 day
[2] = test system: MDA-MB-468; test: Antiproliferative activity against BRCA-proficient human MDA-MB-468 cells assessed as inhibition of cell growth measured after 7 days by MTT assay; format: functional, cell-based; conditions: MDA-MB-468, 168 h
[3] = test system: HCT-116; test: Antiproliferative activity against BRCA2-mutated human HCT-116 cells assessed as inhibition of cell growth measured after 7 days by MTT assay; format: functional, cell-based; conditions: HCT-116, 168 h
[4] = test system: THP-1; test: Antiproliferative activity against human THP-1 cells expressing BRD4 assessed as inhibition of cell growth measured after 3 days by MTT assay; format: functional, cell-based; conditions: THP-1, 72 h
[5] = test system: SW1990; test: Antiproliferative activity against human SW1990 cells assessed as inhibition of cell growth after 3 days by MTT assay; format: functional, cell-based; conditions: SW1990, 72 h
[6] = test system: SW1990; test: Antiproliferative activity against human SW1990 cells assessed as inhibition of cell growth measured after 5 days by MTT assay; format: functional, cell-based; conditions: SW1990, 120 h
[7] = test system: SW1990; test: Antiproliferative activity against human SW1990 cells assessed as inhibition of cell growth measured after 7 days by MTT assay; format: functional, cell-based; conditions: SW1990, 168 h
[8] = test system: CAPAN-1; test: Antiproliferative activity against human CAPAN-1 cells assessed as inhibition of cell growth measured after 3 days by MTT assay; format: functional, cell-based; conditions: CAPAN-1, 72 h
[9] = test system: CAPAN-1; test: Antiproliferative activity against human CAPAN-1 cells assessed as inhibition of cell growth measured after 5 days by MTT assay; format: functional, cell-based; conditions: CAPAN-1, 120 h
[10] = test system: CAPAN-1; test: Antiproliferative activity against human CAPAN-1 cells assessed as inhibition of cell growth measured after 7 days by MTT assay; format: functional, cell-based; conditions: CAPAN-1, 168 h
[11] = test system: CFPAC-1; test: Antiproliferative activity against human CFPAC-1 cells assessed as inhibition of cell growth measured after 3 days by MTT assay; format: functional, cell-based; conditions: CFPAC-1, 72 h
[12] = test system: CFPAC-1; test: Antiproliferative activity against human CFPAC-1 cells assessed as inhibition of cell growth measured after 5 days by MTT assay; format: functional, cell-based; conditions: CFPAC-1, 120 h
[13] = test system: CFPAC-1; test: Antiproliferative activity against human CFPAC-1 cells assessed as inhibition of cell growth measured after 7 days by MTT assay; format: functional, cell-based; conditions: CFPAC-1, 168 h
[14] = test system: Mus musculus; test: Upregulation of CCND1 expression in nude mouse xenografted with human SW1990 cells at 45 mg/kg, ip measured after 4 days by Q-PCR analysis; format: functional, organism-based; conditions: time 4.0 day
[15] = test system: SW1990; test: Induction of DNA damage in human SW1990 cells assessed as increase in gammaH2AX expression at 6 uM incubated for 4 days by DAPI staining based laser confocal microscopic analysis; format: functional, cell-based; conditions: time 4.0 day
[16] = test system: SW1990; test: Effect on CDC25A gene expression in human SW1990 cells at 6 uM by Q-PCR analysis; format: functional, cell-based
[17] = test system: SW1990; test: Upregulation of CCND1 expression in human SW1990 cells at 6 uM measured after 4 days by Western blot analysis; format: functional, cell-based; conditions: time 4.0 day
[18] = test system: SW1990; test: Upregulation of BRCA1 expression in human SW1990 cells at 6 uM measured after 4 days by Western blot analysis; format: functional, cell-based; conditions: time 4.0 day
[19] = test system: CFPAC-1; test: Antiproliferative activity against human CFPAC-1 cells assessed as inhibition of cell growth measured after 4 days by MTT assay; format: functional, cell-based; conditions: CFPAC-1, 96 h
[20] = Toxicity in nude mouse xenografted with human SW1990 cells assessed as heart damage at 15 mg/kg, ip administered for 28 days by H and E staining based fluorescence microscopic analysis; format: organism-based; conditions: in vivo, 672 h, time 28 day
[21] = Toxicity in nude mouse xenografted with human SW1990 cells assessed as spleen damage at 15 mg/kg, ip administered for 28 days by H and E staining based fluorescence microscopic analysis; format: organism-based; conditions: in vivo, 672 h, time 28 day
[22] = Toxicity in nude mouse xenografted with human SW1990 cells assessed as liver damage at 15 mg/kg, ip administered for 28 days in presence of 45 mg/kg Olaparib by H and E staining based fluorescence microscopic analysis; format: organism-based; conditions: in vivo, 672 h, time 28 day
[23] = test system: SW1990; test: Induction of cell cycle arrest in human SW1990 cells assessed as accumulation of cells at S phase at 4 uM incubated for 4 days by propidium iodide staining based flow cytometry (reference value: 29.32%); format: functional; conditions: time 4 day
[24] = test system: SW1990; test: Induction of cell cycle arrest in human SW1990 cells assessed as accumulation of cells at G2/M phase at 1 uM incubated for 4 days in presence of 3 uM Olaparib by propidium iodide staining based flow cytometry (reference value: 5.89%); format: functional; conditions: time 4 day
[25] = test system: SW1990; test: Effect on E2F2 gene expression in human SW1990 cells at 4 uM by Q-PCR analysis; format: functional, cell-based
[26] = test system: SW1990; test: Effect on ALDH1A1 gene expression in human SW1990 cells at 1 uM in presence of Olaparib by Q-PCR analysis; format: functional, cell-based
[27] = species on record: Mus musculus; conditions: dose 15.0 mg/kg, route ip, time 28.0 day
[28] = biological target: Poly [ADP-ribose] polymerase 1 (Homo sapiens, UniProt P09874); test: Inhibition of PARP1 (unknown origin) using biotinylated NAD+ as substrate by microplate reader method
[29] = test system: SW1990; test: Downregulation of BRD4 expression in human SW1990 cells at 2 uM measured after 4 days by Western blot analysis; format: functional, cell-based; conditions: time 4.0 day
[30] = test system: SW1990; test: Induction of apoptosis in human SW1990 cells assessed as late apoptotic cells at 2 uM measured after 4 days by Annexin V-FITC and propidium iodide staining based flow cytometry (reference value: 7.23%); format: functional; conditions: time 4 day
[31] = test system: SW1990; test: Induction of cell cycle arrest in human SW1990 cells assessed as accumulation of cells at G0/G1 phase at 2 uM incubated for 4 days by propidium iodide staining based flow cytometry (reference value: 64.79%); format: functional; conditions: time 4 day
[32] = test system: SW1990; test: Induction of cell cycle arrest in human SW1990 cells assessed as accumulation of cells at S phase at 2 uM incubated for 4 days by propidium iodide staining based flow cytometry (reference value: 29.32%); format: functional; conditions: time 4 day
[33] = test system: Mus musculus; test: Inhibition of E2F2 expression in nude mouse xenografted with human SW1990 cells at 30 mg/kg, ip measured after 4 days by Q-PCR analysis; format: functional, organism-based; conditions: time 4.0 day
[34] = test system: Mus musculus; test: Inhibition of CCND1 expression in nude mouse xenografted with human SW1990 cells at 30 mg/kg, ip measured after 4 days by Q-PCR analysis; format: functional, organism-based; conditions: time 4.0 day
[35] = test system: Mus musculus; test: Inhibition of homologous recombinant repair in nude mouse xenografted with human SW1990 cells assessed as reversal of olaparib-induced Rad51 expression at 30 mg/kg, ip after 4 days by Western blot analysis; format: functional, organism-based; conditions: time 4.0 day
[36] = test system: Mus musculus; test: Induction of DNA damage in human SW1990 cells xenografted in nude mouse assessed as increase in gammaH2AX at 30 mg/kg, ip by immunohistochemical analysis; format: functional, organism-based
[37] = test system: SW1990; test: Effect on Rad51 gene expression in human SW1990 cells at 1 to 2 uM by Q-PCR analysis; format: functional, cell-based; conditions: dose 1-2 µM
[38] = test system: SW1990; test: Effect on ALDH1A1 gene expression in human SW1990 cells at 1 to 2 uM by Q-PCR analysis; format: functional, cell-based; conditions: dose 1-2 µM

Sequence of Poly [ADP-ribose] polymerase 1 (P09874 whole entry): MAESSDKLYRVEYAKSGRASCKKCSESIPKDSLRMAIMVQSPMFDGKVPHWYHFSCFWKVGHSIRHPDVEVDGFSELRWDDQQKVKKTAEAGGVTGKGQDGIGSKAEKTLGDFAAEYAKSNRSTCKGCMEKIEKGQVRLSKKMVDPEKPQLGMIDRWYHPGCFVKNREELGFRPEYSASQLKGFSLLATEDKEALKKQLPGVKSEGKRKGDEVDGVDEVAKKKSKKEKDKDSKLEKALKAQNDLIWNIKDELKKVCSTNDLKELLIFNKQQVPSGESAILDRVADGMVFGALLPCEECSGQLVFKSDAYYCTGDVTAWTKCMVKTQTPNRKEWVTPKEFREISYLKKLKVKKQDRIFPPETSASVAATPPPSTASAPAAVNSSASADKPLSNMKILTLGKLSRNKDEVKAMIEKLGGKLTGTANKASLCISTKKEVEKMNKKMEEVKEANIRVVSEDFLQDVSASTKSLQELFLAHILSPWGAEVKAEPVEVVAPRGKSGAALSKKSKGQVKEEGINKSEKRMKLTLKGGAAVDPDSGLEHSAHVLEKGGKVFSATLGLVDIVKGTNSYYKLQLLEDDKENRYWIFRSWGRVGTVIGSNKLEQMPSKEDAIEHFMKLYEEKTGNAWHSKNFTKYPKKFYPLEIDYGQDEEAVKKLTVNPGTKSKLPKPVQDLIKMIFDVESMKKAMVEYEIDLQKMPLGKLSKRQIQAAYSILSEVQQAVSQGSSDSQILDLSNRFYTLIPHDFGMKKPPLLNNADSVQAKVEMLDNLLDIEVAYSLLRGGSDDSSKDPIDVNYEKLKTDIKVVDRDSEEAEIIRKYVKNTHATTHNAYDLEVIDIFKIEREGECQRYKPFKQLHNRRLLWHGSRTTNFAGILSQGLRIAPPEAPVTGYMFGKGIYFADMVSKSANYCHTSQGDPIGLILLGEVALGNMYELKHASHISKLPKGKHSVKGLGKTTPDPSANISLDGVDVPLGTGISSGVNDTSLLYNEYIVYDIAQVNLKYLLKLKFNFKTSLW

SMILES	IC50 [2] [nM]	IC50 [3] [nM]	IC50 [4] [nM]	IC50 [5] [nM]	IC50 [6] [nM]	IC50 [7] [nM]	IC50 [8] [nM]	IC50 [10] [nM]	IC50 [11] [nM]	IC50 [12] [nM]	IC50 [13] [nM]	IC50 ([9]; read-out: IC50) [nM]	IC50 [19] [nM]	further results
O=C(c1cc(Cc2n[nH]c(=O)c3ccccc23)ccc1F)N1CCN(C(=O)C2CC2)CC1 [OLAPARIB]	1830	7320	32300	19400	4930	3630	25200	2610	28700	9870	7440	–	–	Activity [1]: Non-Toxic; IC50 [9]: 5340 nM; Activity [14]: Active; Activity [15]: Active; Activity [16]: Active; Activity [17]: Active; Activity [18]: Active
Cc1sc2c(c1C)C(c1ccc(Cl)cc1)=N[C@@H](CC(=O)OC(C)(C)C)c1nnc(C)n1-2	540	2030	330	31600	1110	630	24100	450	13900	–	350	580	1860	Activity [20]: Non-Toxic; Activity [21]: Non-Toxic; Activity [22]: Non-Toxic; Activity [23]: 19.43%; Activity [24]: 9.14%; Activity [25]: Active; Activity [26]: Active; inhibition [27]: Active
Cc1noc(C)c1-c1ccc2c(c1)C(c1ccccc1)N(Cc1nc3c(C(N)=O)cccc3[nH]1)C(=O)N2C (configuration not stated)	90	1440	430	11700	980	560	7210	170	2430	980	210	410	1310	IC50 [28]: 49 nM; Activity [29]: Active; Activity [30]: 39.5%; Activity [31]: 78.17%; Activity [32]: 9%; inhibition [33]: Active; inhibition [34]: Active; inhibition [35]: Active; Activity [36]: Active; Activity [37]: Active; Activity [38]: Active
